In patent US20190359653A1, “SELECTIVE PEPTIDE INHIBITORS OF FRIZZLED” (Genentech, Inc., priority 2016, published 2019):
Entries after “also recorded” stand apart in the source; their conditions may differ.

Tests used:
FZD7 CRD-Fc = target: T1, FZD7 CRD-Fc (Homo sapiens, UniProt O75084); assay: spot phage ELISA against FZD7 CRD-Fc; type: binding; conditions: for FZD7 CRD-Fc phage-binding signal: signal minus noise (BSA); for FZD7 CRD-Fc phage-binding signal / FZD7 CRD-Fc S/N: shotgun scanning variants of Fz7-21, Table 5; for FZD7 CRD-Fc S/N: signal to noise ratio; for SIGNAL: NOISE RATIO FZD7 CRD: spot phage ELISA signal against FZD7 CRD over ELISA signal against BSA, Tables 3 and 4
T1 construct: hFZD7 CRD-Fc (cat no. 6178-FZ); purchased R&D systems 6178-FZ
Experimental: (§1) Phage pools of linear peptide libraries (Stanger, K. et al. Allosteric peptides bind a caspase zymogen and mediate caspase tetramerization. Nat Chem Biol 8, 655-660 (2012)) were cycled through rounds of binding selections with hFZD7 CRD-Fc following standard protocols (Tonikian et al. (2007) Nat Protoc 2, 1368-1386). Herceptin (10 μM) was included in sorting solution to block potential Fc binders during all rounds of sorting. After four rounds of binding selection, individual phage clones were analyzed in a high-throughput spot phage ELISA using plate-immobilized FZD7 CRD-Fc as target or off-target for specificity test (hFZD8 CRD-Fc and Herceptin). To measure off-target affinity, duplicate phage particle were assayed against BSA to measure non-specific binding. Clones with a phage-binding signal >0.5 and signal-to-noise ratio >10 were considered to be positive clones and were subjected to DNA sequence analysis. General data handling was done using Microsoft Excel 2010 unless otherwise noted.
(§2) In order to investigate the role of FZD7 in intestinal stem cell function, experiments were performed to identify ligands that selectively bind FZD7 CRD. A naïve linear peptide library (4-16 amino acids in length) and a cyclic peptide library were screened via phage display against FZD7 CRD-Fc. Peptides found to bind FZD7 CRD-Fc were then screened via spot phage ELISA against FZD7 CRD-Fc, FZD8 CRD-Fc, and Herceptin to identify candidates that bind FZD7 CRD but not FZD8 CRD or herceptin. The amino acid sequences of candidate FZD7 CRD-binding linear peptides are shown in Table 3 below, and the amino acid sequences of candidate FZD7 CRD-binding cyclic peptides are shown in Table 4.
(§3) Briefly, sixty Fz7-21-derived peptides (see Table 5), each containing at least one random alanine and/or valine/and/or aspartic acid and/or serine substitution, were generated and screened via spot phage ELISA (i.e., as described above) against FZD7 CRD-Fc and Herceptin.

Herceptin = assay: spot phage ELISA against Herceptin (off-target); type: binding; conditions: for HERCEPTIN S/W: signal minus noise (BSA); for HERCEPTIN S/W / HERCEPTIN S/N: Table 5; for HERCEPTIN S/N: signal to noise ratio; for SIGNAL: NOISE RATIO HERCEPTIN: spot phage ELISA signal against Herceptin over ELISA signal against BSA, Tables 3 and 4
Experimental: as §1, §2, §3

FZD8 CRD-Fc = target: T2, FZD8 CRD-Fc (Homo sapiens, UniProt Q9H461); assay: spot phage ELISA against FZD8 CRD-Fc (off-target); type: binding; conditions: spot phage ELISA signal against FZD 8 CRD over ELISA signal against BSA; Tables 3 and 4
T2 construct: hFZD8 CRD-Fc (cat no. 6129-FZ); purchased R&D systems 6129-FZ
T2 sequence (Q9H461 30-151 limits assumed): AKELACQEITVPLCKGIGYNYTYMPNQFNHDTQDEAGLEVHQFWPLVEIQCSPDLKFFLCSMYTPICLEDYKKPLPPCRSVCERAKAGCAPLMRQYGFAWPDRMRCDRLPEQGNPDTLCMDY
Experimental: as §1, §2

[1] = tested on: Wnt3a-mediated stabilization of β-catenin in mouse L cells; assay: in-cell western of β-catenin protein in L cells treated with Wnt3a; type: cell-based
Experimental: DMSO controls were performed in parallel. Following treatment, the L-cells were fixed, permeabilized, probed with fluorescently labeled anti-β-catenin antibodies, and observed via in-cell western assay (i.e., as described in Hannoush, R. N. (2008) PLoS One 3, e3498) to assess β-catenin protein levels. The values in Table 7 are averages of at least 3 independent replicates, ±standard deviation.

hFZD7 CRD-His = target: T3, hFZD7 CRD-His (Homo sapiens, UniProt O75084); assay: SEC-MALS of hFZD7 CRD-His incubated with peptide; type: binding
T3 construct: hFZD7 CRD-His [Gln33-Gly168] was expressed as a secreted protein in Trichoplusia ni cells expressing EndoH; made in house; host or cells: Trichoplusia ni cells expressing EndoH, treated with Kifunensine (baculovirus)
Experimental: Samples were resolved by a Superdex S200 3.2/300 column (General Electric Healthcare Life Science, Pittsburgh, Pa.; cat. no. 28990946) at 0.15 mL/min in 150 mM NaCl, 50 mM Tris-HCl pH 7.5 buffer with 1% DMSO final concentration. Runs were performed on a 1260 infinity HPLC (Agilent Technology, Santa Clara, Calif.) connected to a Dawn Heleos-II multi-angle static Light Scattering (MALS) detector and a Optilab T-rEX differential Refractive Index (dRI) detector (Wyatt Technologies, Santa Barbara, Calif.).
Samples were resolved by a Superdex S200 3.2/300 column (General Electric Healthcare Life Science, Pittsburgh, Pa.; 28990946) at a 0.15 mL/min in 150 mM NaCl, 50 mM Tris-HCl pH 7.5 buffer with 1% DMSO final concentration. Column was connected to a 1260 infinity HPLC (Agilent Technology, Santa Clara, Calif.) connected to a Dawn Heleos-II Multi-Angle static Light Scattering (MALS) detector and the Optilab T-rEX differential Refractive Index (dRI) detectors (Wyatt Technologies, Santa Barbara, Calif.).

[2] = target: T4, Wnt5a binding to FZD4 CRD (Homo sapiens, UniProt Q9ULV1); assay: ELISA of biotinylated Wnt5a binding to FZD CRD-Fc; conditions: peptide 0-10 μM
T4 construct: hFZD4 CRD-Fc (cat no. 5847-FZ); purchased R&D systems 5847-FZ
T4 sequence (Q9ULV1 40-161 limits assumed): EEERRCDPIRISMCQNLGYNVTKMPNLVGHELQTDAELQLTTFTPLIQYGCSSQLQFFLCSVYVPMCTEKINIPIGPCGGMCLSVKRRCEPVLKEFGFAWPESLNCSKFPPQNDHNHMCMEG
Experimental: (§4) 384-well Maxisorp plates (cat. no. 464718; Thermo Scientific) were incubated with 30 μL of Neutravidin (cat. no. 31000, Thermo Scientific; 2 μg/mL in PBS) overnight at 4° C. Plates were then washed with PBST and blocked with PBS/1% BSA for 1 hour at RT and then washed with PBST prior to further processing. The binding assay was conducted in 96 well plates (cat no. 83007-374; VWR) which were blocked with PBS/1% BSA overnight at 4° C. hFZD4 CRD-Fc or hFZD7 CRD-Fc (63 ng/mL) were incubated with either Bio-Wnt3a (25 ng/mL) or Bio-Wnt5a (50 ng/mL) in the presence of 4-fold serial dilutions of the indicated peptide in PBS overnight at 4° C. All assays included hFZD9 CRD-mIgG2A protein as a negative control. hFZD7 CRD-His was suspended in 150 mM NaCl, 50 mM Tris-HCl at pH 7.5 and when used in assays an equal volume of the same buffer control was used. The binding assay mixtures were transferred to the Neutravidin coated plates and incubated for ˜1 h at RT. The wells were then washed with PBST, incubated with anti-hIgG1-HRP (1:10,000 suspended in PBS supplemented with 1% BSA; cat. no. A18817, Invitrogen), and washed again with PBST. The signal was developed with the addition of TMB reagent (following the manufacturer's recommendation; KPL; 50-76-00) for 15 min prior to the addition of an equal volume of 1 M phosphoric acid for 10 min Absorbance was measured at 450 nm using a Tekan M1000 plate reader. Values were collected and plotted using Prism Graphpad software. All assay conditions using peptides were at 1% DMSO final concentration. […]
(§5) Briefly, the assays were performed using (a) FZD1 CRD-Fc, (b) FZD2 CRD-Fc, (c) FZD4 CRD-Fc, or (d) FZD7 CRD-Fc as the capture reagent and biotinylated-Wnt5a as the detection reagent. […] Streptavidin-HRP was used to detect biotinylated Wnt5a, and HRP activity was measured as a function of chemiluminescence detection at 428 nm. […]

[3] = tested on: receptor-independent β-catenin signaling in 6-BIO-treated HEK293-TB cells; assay: epistasis study, HEK293-TB cells stimulated with 6-BIO; type: cell-based; conditions: 10 μM 6-BIO, 6 hr; FIG. 2E
[4] = tested on: Wnt5a binding to FZD1 CRD, FZD2 CRD, and FZD7 CRD; assay: ELISA of biotinylated Wnt5a binding to FZD CRD-Fc; conditions: FIGS. 22A, 22B
Experimental: as §4, §5

[5] = target: T5, Wnt3a binding to FZD4 CRD (Homo sapiens, UniProt Q9ULV1); assay: ELISA of biotinylated Wnt3a binding to FZD CRD-Fc; conditions: peptide 0-10 μM
T5 construct: hFZD4 CRD-Fc (cat no. 5847-FZ); purchased R&D systems 5847-FZ
T5 sequence (Q9ULV1 40-161 limits assumed): T4 sequence (Q9ULV1 40-161 limits assumed)
Experimental: 384-well Maxisorp plates (cat. no. 464718; Thermo Scientific) were incubated with 30 μL of Neutravidin (cat. no. 31000, Thermo Scientific; 2 μg/mL in PBS) overnight at 4° C. Plates were then washed with PBST and blocked with PBS/1% BSA for 1 hour at RT and then washed with PBST prior to further processing. The binding assay was conducted in 96 well plates (cat no. 83007-374; VWR) which were blocked with PBS/1% BSA overnight at 4° C. hFZD4 CRD-Fc or hFZD7 CRD-Fc (63 ng/mL) were incubated with either Bio-Wnt3a (25 ng/mL) or Bio-Wnt5a (50 ng/mL) in the presence of 4-fold serial dilutions of the indicated peptide in PBS overnight at 4° C. All assays included hFZD9 CRD-mIgG2A protein as a negative control. hFZD7 CRD-His was suspended in 150 mM NaCl, 50 mM Tris-HCl at pH 7.5 and when used in assays an equal volume of the same buffer control was used. The binding assay mixtures were transferred to the Neutravidin coated plates and incubated for ˜1 h at RT. The wells were then washed with PBST, incubated with anti-hIgG1-HRP (1:10,000 suspended in PBS supplemented with 1% BSA; cat. no. A18817, Invitrogen), and washed again with PBST. The signal was developed with the addition of TMB reagent (following the manufacturer's recommendation; KPL; 50-76-00) for 15 min prior to the addition of an equal volume of 1 M phosphoric acid for 10 min Absorbance was measured at 450 nm using a Tekan M1000 plate reader. Values were collected and plotted using Prism Graphpad software. All assay conditions using peptides were at 1% DMSO final concentration.
Without being bound be theory, the substantial conformational change induced by dFz7-21 on hFZD7 CRD, as exemplified by the altered geometry of the lipid binding cavity, may facilitate the accommodation of two Wnt molecules simultaneously onto the hFZD7 CRD dimer (FIG. 4e-h).
Similar results were observed using Wnt3a. […] Binding of Wnt3a to FZD1 CRD, FZD2 CRD, and FZD7 CRD increased in the presence of dFz7-21 at concentrations below about 0.5 μM (FIG. 22E), with the most binding seen in the presence of 0.01 μM-0.05 μM dFz7-21. […] Fz7-21S had no effect on Binding of Wnt3a to any of the FZD CRDs tested (FIG. 22F).

[6] = tested on: Wnt3a-mediated β-catenin signaling in HEK293-TB cells; type: cell-based
[7] = tested on: Rnf43^−/− and Znf3^−/− intestinal neoplasia in mice; conditions: Koo et al. (2015); cited from earlier work

Compound	FZD7 CRD-Fc phage-binding signal (FZD7 CRD-Fc)	FZD7 CRD-Fc S/N (FZD7 CRD-Fc)	HERCEPTIN S/W (Herceptin)	HERCEPTIN S/N (Herceptin)	SIGNAL: NOISE RATIO FZD8 CRD (FZD8 CRD-Fc)	SIGNAL: NOISE RATIO HERCEPTIN (Herceptin)	other results
41 (AASDDLEFWCHVMY) [compound 41]	3.0	59.6	0.0	1.3	–	–	–
16 (PCSVICLPDWSSLLFI) [compound 16]	–	–	–	–	1.1	1.1	SIGNAL: NOISE RATIO FZD7 CRD (FZD7 CRD-Fc): 5.0
5 (PCSVICLPDWSSLLFI) [compound 5]	–	–	–	–	1.5	1.0	SIGNAL: NOISE RATIO FZD7 CRD (FZD7 CRD-Fc): 22.7
40 (AASDDLEFWCHVMY) [compound 40]	3.2	60.5	0.0	1.4	–	–	–
15 (FWMQLQDGFAIWFP) [compound 15]	–	–	–	–	2.9	1.7	–
94 (LPADDLEFWCHVMY) [compound 94]	0.1	2.8	0.0	1.2	–	–	–
LPSDDLEFWCHVMY [Fz7-21]	–	–	–	–	–	–	L CELLS % Remaining Activity ([1]; measured at 11.11 μM of peptide): 50.98^G ± 3.76%; Wnt3a-mediated stabilization of β-catenin ([1]; mouse L cells): blocked; IC50 ([1]; β-catenin by immunofluorescence, Wnt3a 2.5 nM, 5 hours, mean ± standard deviation): 0.05 ± 0.03 µM; ΔMW (kDa) (hFZD7 CRD-His; 1:5, relative to the DMSO control): 6.4 kDa; homodimerization or oligomerization of hFZD7 CRD-His (hFZD7 CRD-His; concentration-dependent): induced homodimerization or oligomerization; MW (kDa) (hFZD7 CRD-His; hFZD7 CRD 15.8 μM, protein:peptide 1:1, 2 h): 21.9 kDa; MW (kDa) (hFZD7 CRD-His; protein:peptide 1:5): 27.3 kDa; MW (kDa) (hFZD7 CRD-His; protein:peptide 1:10): 32 kDa; effect on Wnt5a binding to FZD4 CRD [2]: did not show any effect; also recorded: no such effect; inhibition of Wnt signaling in 6-BIO-treated cells [3]: Neither Fz7-21 nor Fz7-21S inhibited; peptide concentration with the most Wnt5a binding [4]: 0.1 µM; effect on Wnt3a binding to FZD4 CRD [5]: did not show any effect; also recorded: Neither Fz7-21 nor dFz7-21 had any effect; HEK293S-TB % Remaining Activity ([6]; measured at 100 μM peptide, mean ± standard deviation): 5.15 ± 2.88%; IC50 ([6]; read-out: IC50, Wnt3a-stimulated β-catenin signaling): 0.09 to 0.1 µM
Cc1cc(-c2ccc(CC(=O)Nc3ccc(-c4cccnc4)cc3)cc2)ccn1 [C59]	–	–	–	–	–	–	adverse effects on adjacent intestinal crypts [7]: no significant adverse effects; growth of intestinal neoplasia [7]: prevents the growth
